In patent US12649751B2 (Arcus Biosciences, Inc., priority 2022, dated 2026) one finds IC50 data, which are given here for 24 compounds.

pIC50: −log10 of the molar value. Where only a bound is given, the exact number is not on record here.

Sequence of HPK1 (Q92918 whole entry, species assumed): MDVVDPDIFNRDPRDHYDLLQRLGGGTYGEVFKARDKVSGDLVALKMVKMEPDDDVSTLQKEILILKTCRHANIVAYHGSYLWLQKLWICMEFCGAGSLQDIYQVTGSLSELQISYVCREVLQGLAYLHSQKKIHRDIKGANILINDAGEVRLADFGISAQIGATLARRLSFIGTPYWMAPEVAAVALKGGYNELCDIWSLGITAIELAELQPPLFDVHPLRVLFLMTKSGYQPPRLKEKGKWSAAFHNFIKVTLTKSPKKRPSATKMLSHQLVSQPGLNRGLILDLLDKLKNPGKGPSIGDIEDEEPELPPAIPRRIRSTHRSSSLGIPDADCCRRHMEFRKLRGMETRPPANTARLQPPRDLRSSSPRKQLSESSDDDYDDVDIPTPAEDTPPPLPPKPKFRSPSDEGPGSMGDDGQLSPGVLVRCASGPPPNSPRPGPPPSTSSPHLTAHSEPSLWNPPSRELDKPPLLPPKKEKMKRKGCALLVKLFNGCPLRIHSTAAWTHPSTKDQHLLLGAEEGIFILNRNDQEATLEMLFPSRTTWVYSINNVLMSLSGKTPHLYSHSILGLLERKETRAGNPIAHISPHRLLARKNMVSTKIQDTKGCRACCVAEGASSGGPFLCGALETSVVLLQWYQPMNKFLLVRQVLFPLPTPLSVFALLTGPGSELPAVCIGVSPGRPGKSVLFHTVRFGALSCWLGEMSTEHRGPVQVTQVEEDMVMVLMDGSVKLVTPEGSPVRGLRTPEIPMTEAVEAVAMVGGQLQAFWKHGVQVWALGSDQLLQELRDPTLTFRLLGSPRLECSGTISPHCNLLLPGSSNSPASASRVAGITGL

The first experiment has as its target HPK1 (Homo sapiens, UniProt Q92918). The experiment can be described thus: HPK1 Biochemical Assay (ADP-Glo luminescence; low ATP 10 μM or high ATP 200 μM). As to conditions: 2 nM HPK1, 10 μM ATP; read-out: Biochemical Potency (low ATP). The method, then: Dose-response assays were performed in Corning® Low Volume 384-well assay plates containing 100 nL of 22 serial 2-fold compound dilutions. Wells containing DMSO alone were used as negative control. A kinase mixture (5 μL) containing 2 nM HPK1 (or 5 nM for high ATP assay) in assay buffer (50 mM Hepes pH 7.4, 10 mM MgCl2, 0.01% Brij-15, 0.01% bovine serum albumin, and 1 mM dithiothreitol) was added to the assay plates and incubated at 25° C. for 1 hour. Wells without HPK1 were used as positive control. A […] of 10 μM ATP (or 200 μM for high ATP) and 0.2 μg/μL […] was then added to the wells, resulting in a 10 μL total reaction volume. Following incubation of the assay plates at 25° C. for 1 hour, 10 μL of ADP-Glo reagent was added to the wells and the plates were incubated at 25° C. for a further 40 minutes (or 1 hour for high ATP assay). Finally, 20 μL of Kinase Detection Reagent was added, and the plates were incubated for another 30 minutes at 25° C. An Envision plate reader was then used to detect the luminescence signals. IC50 values were determined by fitting the data to a standard 4-parameter logistic equation. The results are summarized in the Biochemical Potency columns of Tables 4 and 5 below (Biochemical Potency (high ATP); Biochemical Potency (low ATP)).
(ADP-Glo first removes unused ATP, then detects ADP through luciferase.)
`Cc1cc(-c2nc3cc(Nc4ccc(N5CCOCC5)c(CN5CCCC5)c4)ncc3s2)ccn1` [Example 2, 2-(2-Methylpyridin-4-yl)-N-[4-(morpholin-4-yl)-3-[(pyrrolidin-1-yl)methyl]phenyl]-[1,3]thiazolo[5,4-c]pyridin-6-amine]: the pIC50 is 6.00 to 7.00.
The same measure, in the same setting: the result for `Fc1cccnc1-c1nc2cc(Nc3ccc(N4CCOCC4)c(CN4CCCC4)n3)ncc2s1` [Example 8, N-[2-(3-Fluoropyridin-2-yl)-[1,3]thiazolo[5,4-c]pyridin-6-yl]-5-(morpholin-4-yl)-6-[(pyrrolidin-1-yl)methyl]pyridin-2-amine] reads more than 7.00.
Regarding `Cc1cccc(C)c1-c1nc2cc(Nc3ccc(N4CCC(F)(F)C4)c(CN4CCCC4)n3)ncc2s1` [Example 10, 5-(3,3-Difluoropyrrolidin-1-yl)-N-[2-(2,6-dimethylphenyl)-[1,3]thiazolo[5,4-c]pyridin-6-yl]-6-[(pyrrolidin-1-yl)methyl]pyridin-2-amine], the pIC50 is more than 7.00.
The same measure, in the same setting: the result for `Fc1cccc(F)c1-c1nc2cc(Nc3ccc(N4CCC(F)(F)C4)c(CN4CCCC4)n3)ncc2s1` [Example 11, N-[2-(2,6-Difluorophenyl)-[1,3]thiazolo[5,4-c]pyridin-6-yl]-5-(3,3-difluoropyrrolidin-1-yl)-6-[(pyrrolidin-1-yl)methyl]pyridin-2-amine] reads 6.00 to 7.00.
Turning to `N#Cc1ccc(-c2nc3cc(Nc4ccc(N5CCOCC5)c(CN5CCCC5)n4)ncc3s2)cc1` [Example 21, 4-(6-{[5-(Morpholin-4-yl)-6-[(pyrrolidin-1-yl)methyl]pyridin-2-yl]amino}-[1,3]thiazolo[5,4-c]pyridin-2-yl)benzonitrile], the pIC50 was more than 7.00.
On the same count and under the same terms, the result for `Fc1ccc(-c2nc3cc(Nc4ccc(N5CCOCC5)c(CN5CCCC5)n4)ncc3s2)cc1` [Example 22, N-[2-(4-Fluorophenyl)-[1,3]thiazolo[5,4-c]pyridin-6-yl]-5-(morpholin-4-yl)-6-[(pyrrolidin-1-yl)methyl]pyridin-2-amine] reads more than 7.00; that for `c1n[nH]cc1-c1nc2cc(Nc3ccc(N4CCOCC4)c(CN4CCCC4)n3)ncc2s1` [Example 25, 5-(Morpholin-4-yl)-N-[2-(1H-pyrazol-4-yl)-[1,3]thiazolo[5,4-c]pyridin-6-yl]-6-[(pyrrolidin-1-yl)methyl]pyridin-2-amine], more than 7.00; that for `Cc1ccc(Nc2cc3nc(-c4ccc(F)cc4)sc3cn2)nc1CN1CCCC1` [Example 32, N-[2-(4-Fluorophenyl)-[1,3]thiazolo[5,4-c]pyridin-6-yl]-5-methyl-6-[(pyrrolidin-1-yl)methyl]pyridin-2-amine], more than 7.00.
Regarding `Cc1ccc(Nc2cc3nc(-c4cc(F)cc(F)c4)sc3cn2)nc1CN1CCCC1` [Example 33, N-[2-(3,5-Difluorophenyl)-[1,3]thiazolo[5,4-c]pyridin-6-yl]-5-methyl-6-[(pyrrolidin-1-yl)methyl]pyridin-2-amine], the pIC50 was 6.00 to 7.00.
Consider `Cc1ccc(Nc2cc3nc(-c4cccc(F)c4)sc3cn2)nc1CN1CCCC1` [Example 34], for which the pIC50 was more than 7.00.
On the same count and under the same terms, for `Cc1ccc(Nc2cc3nc(-c4cnn(C(F)(F)F)c4)sc3cn2)nc1CN1CCCC1` [Example 36, 5-Methyl-6-[(pyrrolidin-1-yl)methyl]-N-{2-[1-(trifluoromethyl)-1H-pyrazol-4-yl]-[1,3]thiazolo[5,4-c]pyridin-6-yl}pyridin-2-amine] the value was 6.00 to 7.00; for `Cc1ccc(Nc2cc3nc(-c4cnn(C5CCOC5)c4)sc3cn2)nc1CN1CCCC1` (stereo not drawn) [Example 38, 5-Methyl-N-{2-[1-(oxolan-3-yl)-1H-pyrazol-4-yl]-[1,3]thiazolo[5,4-c]pyridin-6-yl}-6-[(pyrrolidin-1-yl)methyl]pyridin-2-amine], more than 7.00; for `Cc1ccc(Nc2cc3nc(-c4cnn(C5CCOCC5)c4)sc3cn2)nc1CN1CCCC1` [Example 39, 5-Methyl-N-{2-[1-(oxan-4-yl)-1H-pyrazol-4-yl]-[1,3]thiazolo[5,4-c]pyridin-6-yl}-6-[(pyrrolidin-1-yl)methyl]pyridin-2-amine], more than 7.00.
For the compound `Cc1ccc(Nc2cc3nc(-c4cnn(CCO)c4)sc3cn2)nc1CN1CCCC1` [Example 40, 2-{4-[6-({5-Methyl-6-[(pyrrolidin-1-yl)methyl]pyridin-2-yl}amino)-[1,3]thiazolo[5,4-c]pyridin-2-yl]-1H-pyrazol-1-yl}ethan-1-ol], the pIC50 was more than 7.00.
For the compound `Cc1ccc(Nc2cc3nc(-c4ncccc4C)sc3cn2)nc1CN1CC[C@@H](F)C1` [Example 42, 6-{[(3R)-3-Fluoropyrrolidin-1-yl]methyl}-5-methyl-N-[2-(3-methylpyridin-2-yl)-[1,3]thiazolo[5,4-c]pyridin-6-yl]pyridin-2-amine], the pIC50 is more than 7.00.
`Cc1ccc(Nc2cc3nc(-c4ncccc4C)sc3cn2)nc1CN1CCC[C@@H]1C` [Example 45, 5-Methyl-N-[2-(3-methylpyridin-2-yl)-[1,3]thiazolo[5,4-c]pyridin-6-yl]-6-{[(2S)-2-methylpyrrolidin-1-yl]methyl}pyridin-2-amine]: the pIC50 was more than 7.00.
Turning to `Cc1ccc(Nc2cc3nc(-c4ncccc4C)sc3cn2)nc1CN1CCCC1(C)C` [Example 47, 6-[(2,2-Dimethylpyrrolidin-1-yl)methyl]-5-methyl-N-[2-(3-methylpyridin-2-yl)-[1,3]thiazolo[5,4-c]pyridin-6-yl]pyridin-2-amine], the pIC50 is more than 7.00.
Regarding `Cc1ccc(Nc2cc3nc(-c4ncccc4C)sc3cn2)nc1CN1CCC[C@H]1CO` [Example 48, [(2S)-1-[(3-Methyl-6-{[2-(3-methylpyridin-2-yl)-[1,3]thiazolo[5,4-c]pyridin-6-yl]amino}pyridin-2-yl)methyl]pyrrolidin-2-yl]methanol], the pIC50 was more than 7.00.
`Cc1ccc(Nc2cc3nc(-c4ncccc4C(C)C)sc3cn2)nc1CN1CCCC1` [Example 50, 5-Methyl-N-{2-[3-(propan-2-yl)pyridin-2-yl]-[1,3]thiazolo[5,4-c]pyridin-6-yl}-6-[(pyrrolidin-1-yl)methyl]pyridin-2-amine]: the pIC50 is more than 7.00.
Still for that read-out and setting: for `Cc1ccc(Nc2cc3nc(-c4cnn(C)c4)sc3cn2)nc1CN1CCCC1` [Example 51, 5-Methyl-N-[2-(1-methyl-1H-pyrazol-4-yl)-[1,3]thiazolo[5,4-c]pyridin-6-yl]-6-[(pyrrolidin-1-yl)methyl]pyridin-2-amine] the value was more than 7.00; for `Cc1cccnc1-c1nc2cc(Nc3cccc(CN4CCCC4)n3)ncc2s1` [Example 52, N-[2-(3-Methylpyridin-2-yl)-[1,3]thiazolo[5,4-c]pyridin-6-yl]-6-[(pyrrolidin-1-yl)methyl]pyridin-2-amine], more than 7.00; for `Cc1ccc(Nc2cc3nc(-c4cccnc4)sc3cn2)nc1CN1CCCC1` [Example 53, 5-Methyl-N-[2-(pyridin-3-yl)-[1,3]thiazolo[5,4-c]pyridin-6-yl]-6-[(pyrrolidin-1-yl)methyl]pyridin-2-amine], more than 7.00.
As to `Cc1ccc(Nc2cc3nc(-c4ncccn4)sc3cn2)nc1CN1CCCC1` [Example 55, 5-Methyl-N-[2-(pyrimidin-2-yl)-[1,3]thiazolo[5,4-c]pyridin-6-yl]-6-[(pyrrolidin-1-yl)methyl]pyridin-2-amine], the pIC50 was 6.00 to 7.00.

The same experiment, now with this note: Biochemical Potency (low ATP), 2 nM HPK1, 10 μM ATP.
With `Cc1ccc(Nc2cc3nc(-c4ccncc4)sc3cn2)nc1CN1CCCC1` [Example 35, 5-Methyl-N-[2-(pyridin-4-yl)-[1,3]thiazolo[5,4-c]pyridin-6-yl]-6-[(pyrrolidin-1-yl)methyl]pyridin-2-amine], the pIC50 is more than 7.00.
